One assay concerns Cyclooxygenase. Nature of the assay: Formation of prostaglandin D2 by neutrophils as measure of cyclooxygenase activity (A23187 stimulation, RIA). The class given is cell-based, Sprague Dawley Ratten. The method, then: (§1) Die Bildung von Prostaglandin D2 durch Neutrophile wurde als Maß für die Cyclooxygenase-Aktivität verwendet und die Bildung von Leukotrien B4 als Maß für die 5-Lipoxygenase-Aktivität. Männlichen Sprague Dawley Ratten (250-300 g) wurde lamda - Carrageenan 1 mg intraperitoneal (gelöst in 0.5 ml dest. Wasser) injiziert. Nach 16 Stunden wurden die Ratten durch Exposition in Diethylether getötet. 15 ml eiskalte Hanks balanced salt solution (HBSS) wurden i.p. injiziert, die Neutrophilen durch Absaugen geerntet (10 ml), zentrifugiert (5 min, 100g, 4°C), die überstehende Lösung dekantiert und die Zellen in HBSS resuspendiert bei 4 °C bis zu einer Konzentration von 5x10⁶ Zellen/ml. 400 µl Zellsuspension (2x10⁶ Zellen), 0,5µl Verbindung gelöst in DMSO und 49,5 µl HBSS wurden 5 min bei 37°C inkubiert. Dann wurden 50 µl A23187 (2µmol/l Endkonzentration) zugefügt und anschließend wiederum 5 min bei 37°C inkubiert. Die Reaktion wurde durch Zentrifugieren 10000g, 3s gestoppt und die überstehende Flüssigkeit in vorgekühlte Plastikröhrchen übergeführt und vor dem Beginn der Radioimmunoassay-Messung im Eisbad max. 1 h belassen. PGD2 und LTB4 wurde nach Verdünnung mit HBSS mit Hilfe kommerzieller RIA-Kits gemessen. Als Vergleichssubstanz diente 6-Chlor-4-hydroxy-2-methyl-N-(2-pyridyl)-2H-thieno(2,3-e)1,2-thiazin-3carboxamid-1,1-dioxid ("Lornoxicam", Vbg.A)

A further assay addresses T1, 5-Lipoxygenase (Rattus norvegicus, UniProt P12527).
T1 sequence (P12527 1-673): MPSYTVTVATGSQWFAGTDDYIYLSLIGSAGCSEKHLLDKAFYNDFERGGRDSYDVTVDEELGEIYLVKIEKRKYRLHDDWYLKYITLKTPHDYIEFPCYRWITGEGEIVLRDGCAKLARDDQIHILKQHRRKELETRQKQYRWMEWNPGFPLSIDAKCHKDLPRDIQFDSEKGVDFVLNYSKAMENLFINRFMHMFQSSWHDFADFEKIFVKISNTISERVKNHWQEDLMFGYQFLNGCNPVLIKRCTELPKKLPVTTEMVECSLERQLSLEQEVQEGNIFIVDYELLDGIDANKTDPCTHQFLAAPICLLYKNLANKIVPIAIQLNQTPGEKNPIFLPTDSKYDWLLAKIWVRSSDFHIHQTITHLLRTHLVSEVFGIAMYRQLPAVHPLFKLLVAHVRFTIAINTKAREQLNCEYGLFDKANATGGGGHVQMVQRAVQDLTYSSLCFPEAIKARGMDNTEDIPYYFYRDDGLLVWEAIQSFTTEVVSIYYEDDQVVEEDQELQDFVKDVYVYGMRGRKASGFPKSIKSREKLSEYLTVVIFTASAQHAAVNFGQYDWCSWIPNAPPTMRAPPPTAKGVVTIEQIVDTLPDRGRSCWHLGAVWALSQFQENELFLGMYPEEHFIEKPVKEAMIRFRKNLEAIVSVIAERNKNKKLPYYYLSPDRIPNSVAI
In words: Formation of leukotriene B4 by neutrophils as measure of 5-lipoxygenase activity (A23187 stimulation, RIA). Type of assay: cell-based, Sprague Dawley Ratten. The method, then:
as §1

Where [1] appears, read: rat peritoneal neutrophils (carrageenan-elicited), 2x10⁶ cells, A23187 2 µmol/l, 5 min 37°C, LTB4 by RIA, read-out: IC50 (µmol/l) LTB4.
Where [2] appears, read: read-out: IC50 (µmol/l) PGD2, rat peritoneal neutrophils (carrageenan-elicited), 2x10⁶ cells, A23187 2 µmol/l, 5 min 37°C.

SMILES strings stand for the structures. Where two headings read alike, the source gives them in different places. Bounds are passed on as bounds.

In the case of `CN1C(C(=O)Nc2ccccn2)=C(O)c2sc(Cl)cc2S1(=O)=O` [A], the IC50 in the assay with Cyclooxygenase (rat peritoneal neutrophils (carrageenan-elicited), 2x10⁶ cells, A23187 2 µmol/l, 5 min 37°C, PGD2 by RIA, read-out: IC50 (µmol/l) PGD2) is 0.02 µmol/L; at 5-Lipoxygenase (setting [1]), over 10 µmol/L.
Take `CN1C(C(=O)Nc2cccc(-c3ccc(Oc4ccc(F)cc4)o3)n2)=C(O)c2sc(Cl)cc2S1(=O)=O` [Vbg 4, 6-Chlor-N-{6-[5-(4-fluorphenoxy)-2-furyl]-2-pyridinyl}-4-hydroxy-2-methyl-2H-thieno[2,3-e]-1,2-thiazin-3-carboxamid-1,1-dioxid]: the IC50 in the assay with Cyclooxygenase (setting [2]) came to 1.7 µmol/L; at 5-Lipoxygenase (setting [1]), 1.3 µmol/L.
The like results for `CN1C(C(=O)Nc2cccc(-c3cc4ccccc4s3)n2)=C(O)c2sc(Cl)cc2S1(=O)=O` [Vbg 1, N-[6-(2-Benzo[b]thienyl)-2-pyridinyl]-6-chlor-4-hydrory-2-methyl-2H-thieno[2,3-e][1,2]thiazin-3-carboxamid-1,1-dioxid] were, in that order, 0.049 µmol/L and 2 µmol/L.
With `CN1C(C(=O)Nc2cccc(-c3ccc(-c4ccccc4)cc3)n2)=C(O)c2sc(Cl)cc2S1(=O)=O` [Vbg 2, N-[6-(4-Biphenyl)-2-pyridinyl]-6-chlor-4-hydroxy-2-methyl-2H-thieno[2,3-e][1,2]thiazin-3-carboxamid-1,1-dioxid], the IC50 turned out to be 3.5 µmol/L with Cyclooxygenase (setting [2]) and 1.4 µmol/L against 5-Lipoxygenase.
For the compound `CN1C(C(=O)Nc2cccc(-c3cccc(Oc4ccc(F)cc4)c3)n2)=C(O)c2sc(Cl)cc2S1(=O)=O` [Vbg 3, 6-Chlor-N-{6-[3-(4-fluorphenoxy)phenyl]-2-pyridinyl}-4-hydroxy-2-methyl-2H-thieno[2,3-e]-1,2-thiazin-3-carboxamid-1,1-dioxid], the IC50 with Cyclooxygenase (setting [2]) came to 0.45 µmol/L; at 5-Lipoxygenase (setting [1]), 1.7 µmol/L.
For `CN1C(C(=O)Nc2cccc(-c3cc4ccccc4o3)n2)=C(O)c2sc(Cl)c(Cl)c2S1(=O)=O` [Vbg 5, N-[6-(2-Benzo[b]furyl)-2-pyridinyl]-6,7-dichlor-4-hydroxy-2-methyl-2H-thieno-[2,3-e][1,2]thiazin-3-carboxamid-1,1-dioxid], the results for the IC50 in the assay with Cyclooxygenase (setting [2]) and on 5-Lipoxygenase (setting [1]) were 0.036 µmol/L and 1.3 µmol/L, respectively.

Values taken from patent EP0657459A1, “Thienothiazine derivates, process for their preparation and their use as anti-inflammatory and analgesic agents” (Chemisch Pharmazeutische Forschungsgesellschaft m.b.H., priority 1993, dated 1995).
